In paper PMC4884629 (Toxicology and applied pharmacology, 2013):

Biological target: HERG potassium channel (Homo sapiens, UniProt Q12809)
Assay: whole-cell patch clamp, HERG tail current in CHO cells
Format: cell-based

Sequence of HERG potassium channel (Q12809 whole entry): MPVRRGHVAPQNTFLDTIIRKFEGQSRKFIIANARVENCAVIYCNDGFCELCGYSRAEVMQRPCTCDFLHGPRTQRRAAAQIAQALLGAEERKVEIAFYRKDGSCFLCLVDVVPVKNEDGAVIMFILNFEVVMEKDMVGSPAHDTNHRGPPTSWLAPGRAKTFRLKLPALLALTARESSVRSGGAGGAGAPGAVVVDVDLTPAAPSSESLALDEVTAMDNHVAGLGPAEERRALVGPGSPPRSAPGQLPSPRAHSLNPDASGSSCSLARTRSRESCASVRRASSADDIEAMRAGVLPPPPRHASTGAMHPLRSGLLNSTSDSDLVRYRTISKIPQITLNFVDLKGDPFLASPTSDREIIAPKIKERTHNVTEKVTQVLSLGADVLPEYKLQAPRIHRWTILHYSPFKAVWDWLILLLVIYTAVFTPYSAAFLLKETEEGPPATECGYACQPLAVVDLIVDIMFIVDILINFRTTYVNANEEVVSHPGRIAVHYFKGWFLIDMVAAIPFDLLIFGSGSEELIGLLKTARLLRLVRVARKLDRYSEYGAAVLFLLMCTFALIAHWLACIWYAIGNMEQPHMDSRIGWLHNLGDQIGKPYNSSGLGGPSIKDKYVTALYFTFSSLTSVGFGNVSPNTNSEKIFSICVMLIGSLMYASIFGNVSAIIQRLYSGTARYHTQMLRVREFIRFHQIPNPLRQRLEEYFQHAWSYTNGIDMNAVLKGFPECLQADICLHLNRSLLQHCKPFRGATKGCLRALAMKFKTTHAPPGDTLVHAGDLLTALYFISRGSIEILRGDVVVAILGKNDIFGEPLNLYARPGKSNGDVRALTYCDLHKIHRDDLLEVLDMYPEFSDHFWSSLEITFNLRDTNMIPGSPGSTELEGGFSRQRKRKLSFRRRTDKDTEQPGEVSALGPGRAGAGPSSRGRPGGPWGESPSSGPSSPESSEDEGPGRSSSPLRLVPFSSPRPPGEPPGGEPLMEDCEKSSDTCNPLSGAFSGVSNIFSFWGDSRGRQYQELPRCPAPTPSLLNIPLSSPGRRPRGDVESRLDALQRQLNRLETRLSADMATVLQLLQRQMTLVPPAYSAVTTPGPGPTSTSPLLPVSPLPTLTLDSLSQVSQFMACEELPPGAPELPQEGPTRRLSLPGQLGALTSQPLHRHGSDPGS

## CCCCCCCC[N+](CCCCCCCC)(CCCCCCCC)CCCCCCCC [TB, tetra-n-octylammonium bromide]
  IC50: 4 nM
